Active and inactive are the calls of the source. The calls are words filed in the database; no cut-off is given here.
Columns and labels:
HL-60 = test: Cytotoxicity against human HL60 cells after 48 hrs by trypan blue exclusion method; format: functional, cell-based
[1] = Antitumor activity against human MV522 cells xenografted BALB/c nu/nu mouse assessed as increase in life span at 10 mg/kg, iv administered three times per week for 3 weeks; format: functional
MV522 = test: Antitumor activity against human MV522 cells xenografted BALB/c nu/nu mouse assessed as induction of tumor regression at 10 mg/kg, iv administered three times per week for 3 weeks; format: functional, organism-based; design: dose 10 mg/kg
[2] = Homo sapiens, HL-60, 48 h, read-out: IC50

Structure (SMILES)	IC50 (HL-60; [2])	also measured
CC1=C(CSc2ccc(C)cc2)C2=C(C)C3(CC3)[C@@](C)(O)C(=O)C2=C1	–	IC50 (HL-60; hl-60): ND(Insoluble)
CC1=C2C(=O)C(C)(C)C=C2C(=O)[C@](C)(O)C12CC2 [DEHYDROILLUDIN M]	296 nM	–
CC1=CC2=C(C)C3(CC3)[C@@](C)(O)C(=O)C2=C1 [ACYLFULVENE]	415 nM	–
COc1ccc(CC2=C(C)C=C3C(=O)[C@](C)(O)C4(CC4)C(C)=C32)cc1	1050 nM	–
CC1=C(CO)C2=C(C)C3(CC3)[C@@](C)(O)C(=O)C2=C1 [IROFULVEN]	73 nM	Activity [1]: 150%; Activity (MV522): Active
CC1=C(Cc2ccc(O)cc2)C2=C(C)C3(CC3)[C@@](C)(O)C(=O)C2=C1	380 nM	–

From ChEMBL document CHEMBL1158296, “(Hydroxymethyl)acylfulvene: an illudin derivative with superior antitumor properties” (J Nat Prod, 1996)
